We go through 32 molecules from US20230150970A1, “AMINOPYRIMIDINE DERIVATIVES AND THEIR USE AS ARYL HYDROCARBON RECEPTOR MODULATORS” (DONG-A ST CO., LTD., priority 2020, published 2023).

The data set concerns the target T1, AhR (Homo sapiens, UniProt P35869).
T1 sequence (P35869 11-848): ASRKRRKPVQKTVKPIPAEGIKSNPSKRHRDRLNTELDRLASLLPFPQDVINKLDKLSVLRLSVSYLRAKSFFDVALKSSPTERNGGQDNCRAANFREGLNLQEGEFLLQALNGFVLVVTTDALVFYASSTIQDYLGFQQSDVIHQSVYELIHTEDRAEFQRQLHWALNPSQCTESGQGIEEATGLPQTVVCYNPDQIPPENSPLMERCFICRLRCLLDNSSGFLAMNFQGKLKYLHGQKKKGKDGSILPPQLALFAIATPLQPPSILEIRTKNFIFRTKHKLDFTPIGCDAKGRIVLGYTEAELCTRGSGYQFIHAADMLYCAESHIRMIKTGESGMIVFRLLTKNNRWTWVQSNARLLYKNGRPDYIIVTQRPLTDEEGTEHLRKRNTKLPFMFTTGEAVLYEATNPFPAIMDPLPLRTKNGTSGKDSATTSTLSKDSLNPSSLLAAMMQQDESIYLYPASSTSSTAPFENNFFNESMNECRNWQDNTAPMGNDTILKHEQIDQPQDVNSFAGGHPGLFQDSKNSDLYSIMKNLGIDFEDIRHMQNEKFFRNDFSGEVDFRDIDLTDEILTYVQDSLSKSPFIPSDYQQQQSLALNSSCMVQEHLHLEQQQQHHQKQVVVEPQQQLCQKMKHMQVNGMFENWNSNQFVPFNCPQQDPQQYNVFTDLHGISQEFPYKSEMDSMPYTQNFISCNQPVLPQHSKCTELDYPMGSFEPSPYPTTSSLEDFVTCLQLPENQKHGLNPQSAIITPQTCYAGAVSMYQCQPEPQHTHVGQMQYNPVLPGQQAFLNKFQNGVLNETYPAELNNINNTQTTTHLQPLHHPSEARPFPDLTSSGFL
The experiment in a line: In Vitro Assay 1: XRE-luciferase reporter assay, antagonism in human cell line (HepG2). (In general: A reporter such as luciferase makes a cellular process visible.)

Setting [1] is: Assay 1: AhR-Luc Human Antagonism (IC50, nM), unmarked values: kynurenine 200 μM, 6 hours.
Setting [2] is: read-out: Assay 1: AhR-Luc Human Antagonism (IC50), values marked *: kynurenine 50 μM, 6 hours.

Read-outs that look alike come from different tables or passages of the source.

Broadly, the IC50 is the concentration that inhibits the measured activity by half. Under setting [1], `O[C@H]1CCN(c2cc(-c3ccc(Cl)cc3)nc(-c3ccc(F)nc3)n2)C1` [Example 345, (S)-1-(6-(4-chlorophenyl)-2-(6-fluoropyridin-3-yl)pyrimidin-4-yl)pyrrolidin-3-ol] had an IC50 of 100 to 1000 nM.
In the case of `O[C@H]1CCN(c2cc(-c3ccc(Cl)cc3)nc(-c3cccnc3F)n2)C1` [Example 346, (S)-1-(6-(4-chlorophenyl)-2-(2-fluoropyridin-3-yl)pyrimidin-4-yl)pyrrolidin-3-ol], the IC50 under setting [1] was 10 to 100 nM.
With `O[C@H]1CCN(c2cc(-c3ccc(Cl)cc3)nc(-c3ccccn3)n2)C1` [Example 347, (S)-1-(6-(4-chlorophenyl)-2-(pyridin-2-yl)pyrimidin-4-yl)pyrrolidin-3-ol], the IC50 under setting [1] was above 1000 nM.
`Cn1cc(-c2nc(-c3ccc(Cl)cc3)cc(N3CCN(S(=O)(=O)CCO)CC3)n2)cn1` [Example 348, 2-((4-(6-(4-chlorophenyl)-2-(1-methyl-1H-pyrazol-4-yl)pyrimidin-4-yl)piperazin-1-yl)sulfonyl)ethanol] displayed an IC50 under setting [1] of 10 to 100 nM.
The molecule `O[C@H]1CCN(c2cc(-c3ccc(C(F)(F)F)cc3)nc(-c3cnsc3)n2)C1` [Example 350, (S)-1-(2-(isothiazol-4-yl)-6-(4-(trifluoromethyl)phenyl)pyrimidin-4-yl)pyrrolidin-3-ol] registered an IC50 under setting [1] below 10 nM.
With `CS(=O)(=O)C1(CO)CCN(c2cc(-c3ccc(C(F)(F)F)cc3)nc(-c3cccnc3)n2)CC1` [Example 351, (4-(methylsulfonyl)-1-(2-(pyridin-3-yl)-6-(4-(trifluoromethyl)phenyl)pyrimidin-4-yl)piperidin-4-yl)methanol], the IC50 under setting [1] was above 1000 nM.
In turn, `Cn1cc(-c2nc(-c3ccc(C(F)(F)F)cc3)cc(N3CCN(S(=O)(=O)CCO)CC3)n2)cn1` [Example 353, 2-((4-(2-(1-methyl-1H-pyrazol-4-yl)-6-(4-(trifluoromethyl)phenyl)pyrimidin-4-yl)piperazin-1-yl)sulfonyl)ethanol] showed a concentration for half-maximal inhibition (IC50) under setting [1] of 10 to 100 nM.
The same measure, in the same setting: next, `CN(C)C1CN(c2cc(-c3ccc(Cl)cc3)nc(-c3cccnc3)n2)CCC1O` (centres unmarked) [Example 354, 1-(6-(4-chlorophenyl)-2-(pyridin-3-yl)pyrimidin-4-yl)-3-(dimethylamino)piperidin-4-ol]: above 1000 nM.
The molecule `CN(C)C1CC(O)CN(c2cc(-c3ccc(Cl)cc3)nc(-c3cccnc3)n2)C1` (centres unmarked) [Example 355, 1-(6-(4-chlorophenyl)-2-(pyridin-3-yl)pyrimidin-4-yl)-5-(dimethylamino)piperidin-3-ol] came in with an IC50 under setting [1] of 100 to 1000 nM.
Under setting [1], `Cn1cc(-c2nc(-c3ccc(Cl)cc3)cc(N3CCC(CO)(S(C)(=O)=O)CC3)n2)cn1` [Example 356, (1-(6-(4-chlorophenyl)-2-(1-methyl-1H-pyrazol-4-yl)pyrimidin-4-yl)-4-(methylsulfonyl)piperidin-4-yl)methanol] returned an IC50 of 10 to 100 nM.
The molecule `Cn1cc(-c2nc(-c3ccc(C(F)(F)F)cc3)cc(N3CCC(CO)(S(C)(=O)=O)CC3)n2)cn1` [Example 357, (1-(2-(1-methyl-1H-pyrazol-4-yl)-6-(4-(trifluoromethyl)phenyl)pyrimidin-4-yl)-4-(methylsulfonyl)piperidin-4-yl)methanol] showed an IC50 under setting [1] below 10 nM.
The molecule `CN(C)C1CN(c2cc(-c3ccc(Cl)cc3)nc(-c3cccnc3)n2)CCC1CO` (centres unmarked) [Example 358, (1-(6-(4-chlorophenyl)-2-(pyridin-3-yl)pyrimidin-4-yl)-3-(dimethylamino)piperidin-4-yl)methanol] had a 50% inhibitory concentration (IC50) under setting [1] of 100 to 1000 nM.
As for `CC1CN(S(=O)(=O)CCO)CCN1c1cc(-c2ccc(Cl)cc2)nc(-c2cccnc2)n1` (centres unmarked) [Example 359, 2-((4-(6-(4-chlorophenyl)-2-(pyridin-3-yl)pyrimidin-4-yl)-3-methylpiperazin-1-yl)sulfonyl)ethan-1-ol], the IC50 under setting [1] lay in the range of 10 to 100 nM.
`OCCNC1CCN(c2cc(-c3ccc(Cl)cc3)nc(-c3cccnc3)n2)CC1` [Example 360, 2-((1-(6-(4-chlorophenyl)-2-(pyridin-3-yl)pyrimidin-4-yl)piperidin-4-yl)amino)ethanol]: the IC50 under setting [1] is above 1000 nM.
`O=S(=O)(CCCO)N1CCN(c2cc(-c3ccc(Cl)cc3)nc(-c3cccnc3)n2)CC1` [Example 362, 3-((4-(6-(4-chlorophenyl)-2-(pyridin-3-yl)pyrimidin-4-yl)piperazin-1-yl)sulfonyl)propan-1-ol] showed an IC50 under setting [1] below 10 nM.
Consider `O=C(CC(O)CO)N1CCN(c2cc(-c3ccc(Cl)cc3)nc(-c3cccnc3)n2)CC1` (centres unmarked) [Example 363, 1-(4-(6-(4-chlorophenyl)-2-(pyridin-3-yl)pyrimidin-4-yl)piperazin-1-yl)-3,4-dihydroxybutan-1-one], for which the 50% inhibitory concentration (IC50) under setting [1] was below 10 nM.
On the same count and under the same terms, next, `CC(O)C(O)C(=O)N1CCN(c2cc(-c3ccc(Cl)cc3)nc(-c3cccnc3)n2)CC1` (centres unmarked) [Example 364, 1-(4-(6-(4-chlorophenyl)-2-(pyridin-3-yl)pyrimidin-4-yl)piperazin-1-yl)-2,3-dihydroxybutan-1-one]: below 10 nM; `CC1CN(c2cc(-c3ccc(Cl)cc3)nc(-c3cccnc3)n2)CC(=O)N1` (centres unmarked) [Example 365, 4-(6-(4-chlorophenyl)-2-(pyridin-3-yl)pyrimidin-4-yl)-6-methylpiperazin-2-one]: 100 to 1000 nM.
The molecule `O=C1COCCN1c1ccc(-c2cc(N3CC[C@H](O)C3)nc(-c3cccnc3)n2)cc1` [Example 367, (S)-4-(4-(6-(3-hydroxypyrrolidin-1-yl)-2-(pyridin-3-yl)pyrimidin-4-yl)phenyl)morpholin-3-one] returned a half-maximal inhibitory concentration (IC50) under setting [1] above 1000 nM.
Take `O=S(=O)(CCO)N1CCN(c2cc(-c3ccc(Cl)cc3)nc(-c3cnsc3)n2)CC1` [Example 368, 2-((4-(6-(4-chlorophenyl)-2-(isothiazol-4-yl)pyrimidin-4-yl)piperazin-1-yl)sulfonyl)ethanol]: the IC50 under setting [1] was in the range of 10 to 100 nM.
On the same count and under the same terms, then `O=S(=O)(CC(O)CO)N1CCN(c2cc(-c3ccc(Cl)cc3)nc(-c3cccnc3)n2)CC1` (centres unmarked) [Example 369, 3-((4-(6-(4-chlorophenyl)-2-(pyridin-3-yl)pyrimidin-4-yl)piperazin-1-yl)sulfonyl)propane-1,2-diol], with 10 to 100 nM.
As to `O=S(=O)(CCO)N1CCN(c2cc(-c3ccc(C(F)(F)F)cc3)nc(-c3cnsc3)n2)CC1` [Example 370, 2-((4-(2-(isothiazol-4-yl)-6-(4-(trifluoromethyl)phenyl)pyrimidin-4-yl)piperazin-1-yl)sulfonyl)ethanol], the IC50 under setting [1] fell in the range of 10 to 100 nM.
In the case of `OCC[C@H]1CN(c2cc(-c3ccc(Cl)cc3)nc(-c3cccnc3)n2)CCN1` [Example 371, (S)-2-(4-(6-(4-chlorophenyl)-2-(pyridin-3-yl)pyrimidin-4-yl)piperazin-2-yl)ethanol], under setting [1], the IC50 is 100 to 1000 nM.
Take `O=C1COCCN1c1ccc(-c2cc(N3CC[C@H](O)C3)nc(-c3cccnc3)n2)cn1` [Example 372, (S)-4-(5-(6-(3-hydroxypyrrolidin-1-yl)-2-(pyridin-3-yl)pyrimidin-4-yl)pyridin-2-yl)morpholin-3-one]: the IC50 under setting [1] lay in the range of 100 to 1000 nM.
The same measure, in the same setting: then `Oc1ncccc1-c1nc(-c2ccc(N3CCOCC3)c(F)c2)cc(N2CC[C@H](O)C2)n1` [Example 373, (S)-3-(4-(3-fluoro-4-morpholinophenyl)-6-(3-hydroxypyrrolidin-1-yl)pyrimidin-2-yl)pyridin-2-ol], with 10 to 100 nM; and `CN(C)CCNc1ccc(-c2cc(N3CC[C@H](O)C3)nc(-c3cccnc3)n2)cc1` [Example 374, (S)-1-(6-(4-((2-(dimethylamino)ethyl)amino)phenyl)-2-(pyridin-3-yl)pyrimidin-4-yl)pyrrolidin-3-ol], with above 1000 nM.
As to `CN(C)CCOc1ccc(-c2cc(N3CC[C@H](O)C3)nc(-c3cccnc3)n2)cc1` [Example 375, (S)-1-(6-(4-(2-(dimethylamino)ethoxy)phenyl)-2-(pyridin-3-yl)pyrimidin-4-yl)pyrrolidin-3-ol], the IC50 under setting [1] was above 1000 nM.
Under setting [1], `OCCNc1ccc(-c2cc(N3CC[C@H](O)C3)nc(-c3cccnc3)n2)cc1` [Example 376, (S)-1-(6-(4-((2-hydroxyethyl)amino)phenyl)-2-(pyridin-3-yl)pyrimidin-4-yl)pyrrolidin-3-ol] yielded a concentration for half-maximal inhibition (IC50) of 100 to 1000 nM.
For “(R)-(4-(6-(4-chlorophenyl)-2-(pyridin-3-yl)pyrimidin-4-yl)piperazin-2-yl)methanol [Example 79]”, the IC50 under setting [2] was above 1000 nM.
On to “Cis-4-((6-(4-chlorophenyl)-2-(pyridin-3-yl)pyrimidin-4-yl)amino)cyclohexan-1-ol [Example 216]”, for which the IC50 under setting [2] lay within 10 to 100 nM.
In the case of “Cis-(4-((6-(4-chlorophenyl)-2-(pyridin-3-yl)pyrimidin-4-yl)amino)cyclohexyl)methanol [Example 215]”, under setting [2], the 50% inhibitory concentration (IC50) lay in the range of 10 to 100 nM.
Take “Trans-4-((6-(4-chlorophenyl)-2-(pyridin-3-yl)pyrimidin-4-yl)amino)cyclohexan-1-ol [Example 217]”: the IC50 under setting [2] lay in the range of 10 to 100 nM.
